{"source": "patent US20180133327A1", "about": "“Cell Penetrating Peptides and Complexes Comprising the Same” (Amal Therapeutics SA, priority 2015, published 2018)", "test_system": "IFN-γ-producing OVA323-339-specific CD4 T cells", "test": "Vaccination with ZEBRA CPP truncation constructs plus TLR agonist adjuvant, IFN-γ Elispot on spleen cells, CD4", "type": "in vivo, mice", "procedure": "(§1) Mice were vaccinated three times (wk0, wk2 and wk9) by s.c. injection (right flank) of 10 nmoles of OVACD8CD4 (the cargo without Zebra CPP truncation), Z13OVACD8CD4, Z14OVACD8CD4, Z15OVACD8CD4, Z18OVACD8CD4 and i.m. injection of 50 μg of Hiltonol (right hind leg). One week after the last vaccination, Elispot assay was performed on spleen cells for detecting IFN-y-producing OVA257-264-specific CD8 T cells (A) and OVA323-339-specific CD4 T cells (B). *, p<0.05; **, p<0.01.\nas §1, with “Z15OVACD8CD4 or” for “Z15OVACD8CD4,”, “20” for “i.m. injection of 50”, “Pam3CSK4.” for “Hiltonol (right hind leg).”, “IFN-γ-producing” for “IFN-y-producing”\nMice were vaccinated three times (wk0, wk2 and wk9) by s.c. injection (right flank) of 10 nmoles of Z13OVACD8CD4, Z15OVACD8CD4 or Z18OVACD8CD4 and 20 μg of MPLA. […]\nFirstly, those constructs were tested with Hiltonol adjuvant (a TLR3 agonist). […] The number of peptide-specific IFN-γ-producing cells was calculated by subtracting the number of IFN-γ-secreting cells cultured without peptide to that obtained with cells cultured with peptide. […]"}
{"sequence": "KRYKNRVASRKSRAKFKQLLQHYREVAAAKSSENDRLRLLLK [Z13]", "values": [{"measurement": "CD4 immune response, combined with MPLA", "setting": "10 nmol ZxxOVACD8CD4 s.c. wk0, wk2, wk9 and 20 μg MPLA (TLR4 agonist)", "result": "most efficacious"}]}
{"sequence": "REVAAAKSSENDRLRLLLK [Z18]", "values": [{"measurement": "CD4 immune response, combined with Pam3CSK4", "setting": "10 nmol ZxxOVACD8CD4 s.c. wk0, wk2, wk9 and 20 μg Pam3CSK4 (TLR2 agonist)", "result": "highest CD8 and CD4 immune response"}]}
